Measurements from US12404262B2 (priority 2021, dated 2025).

Conditions: 1.0% DMSO, 24-hour incubation at ambient temperature, maximum theoretical 100 μM; for pH 2 solubility: 0.1N HCl, first value of the cell; for pH 7 solubility: 1×PBS buffer (pH 7.4), second value of the cell

Compound	pH 2 solubility	pH 7 solubility
CC(C)(CO)NC(=O)N(c1nn(CC(F)(F)F)c2c(-c3ccc(C#CC(C)(C)S(C)(=O)=O)nc3[C@H](Cc3cc(F)cc(F)c3)NC(=O)Cn3nc(C(F)(F)F)c4c3C(F)(F)[C@@H]3C[C@H]43)ccc(Cl)c12)S(C)(=O)=O [Compound 39, N—((S)-1-(3-(4-chloro-3-(N-((1-hydroxy-2-methylpropan-2-yl)carbamoyl)methylsulfonamido)-1-(2,2,2-trifluoroethyl)-1H-indazol-7-yl)-6-(3-methyl-3-(methylsulfonyl)but-1-yn-1-yl)pyridin-2-yl)-2-(3,5-difluorophenyl)ethyl)-2-((3bS,4aR)-5,5-difluoro-3-(trifluoromethyl)-3b,4,4a,5-tetrahydro-1H-cyclopropa[3,4]cyclopenta[1,2-c]pyrazol-1-yl)acetamide]	1 μM	2 μM
CC(C)(C#Cc1ccc(-c2ccc(Cl)c3c(N(C(=O)OCCC(=O)O)S(C)(=O)=O)nn(CC(F)(F)F)c23)c([C@H](Cc2cc(F)cc(F)c2)NC(=O)Cn2nc(C(F)(F)F)c3c2C(F)(F)[C@@H]2C[C@H]32)n1)S(C)(=O)=O [Compound 121, 3-(((4-chloro-7-(2-((S)-1-(2-((3bS,4aR)-5,5-difluoro-3-(trifluoromethyl)-3b,4,4a,5-tetrahydro-1H-cyclopropa[3,4]cyclopenta[1,2-c]pyrazol-1-yl)acetamido)-2-(3,5-difluorophenyl)ethyl)-6-(3-methyl-3-(methylsulfonyl)but-1-yn-1-yl)pyridin-3-yl)-1-(2,2,2-trifluoroethyl)-1H-indazol-3-yl)(methylsulfonyl)carbamoyl)oxy)propanoic acid]	1 μM	21 μM
CC(C)(C#Cc1ccc(-c2ccc(Cl)c3c(N(C(=O)NCCN4CCOCC4)S(C)(=O)=O)nn(CC(F)(F)F)c23)c([C@H](Cc2cc(F)cc(F)c2)NC(=O)Cn2nc(C(F)(F)F)c3c2C(F)(F)[C@@H]2C[C@H]32)n1)S(C)(=O)=O [Compound 42, N—((S)-1-(3-(4-chloro-3-(N-((2-morpholinoethyl)carbamoyl)methylsulfonamido)-1-(2,2,2-trifluoroethyl)-1H-indazol-7-yl)-6-(3-methyl-3-(methylsulfonyl)but-1-yn-1-yl)pyridin-2-yl)-2-(3,5-difluorophenyl)ethyl)-2-((3bS,4aR)-5,5-difluoro-3-(trifluoromethyl)-3b,4,4a,5-tetrahydro-1H-cyclopropa[3,4]cyclopenta[1,2-c]pyrazol-1-yl)acetamide]	62 μM	5 μM
CC(C)(C#Cc1ccc(-c2ccc(Cl)c3c(N(C(=O)C(=O)N[C@@H](CC(=O)O)C(=O)O)S(C)(=O)=O)nn(CC(F)(F)F)c23)c([C@H](Cc2cc(F)cc(F)c2)NC(=O)Cn2nc(C(F)(F)F)c3c2C(F)(F)[C@@H]2C[C@H]32)n1)S(C)(=O)=O [Compound 12, (2-(N-(4-chloro-7-(2-((S)-1-(2-((3bS,4aR)-5,5-difluoro-3-(trifluoromethyl)-3b,4,4a,5-tetrahydro-1H-cyclopropa[3,4]cyclopenta[1,2-c]pyrazol-1-yl)acetamido)-2-(3,5-difluorophenyl)ethyl)-6-(3-methyl-3-(methylsulfonyl)but-1-yn-1-yl)pyridin-3-yl)-1-(2,2,2-trifluoroethyl)-1H-indazol-3-yl)methylsulfonamido)-2-oxoacetyl)-L-aspartic acid]	10/10 μM	10/10 μM
CN(C(=O)N(c1nn(CC(F)(F)F)c2c(-c3ccc(C#CC(C)(C)S(C)(=O)=O)nc3[C@H](Cc3cc(F)cc(F)c3)NC(=O)Cn3nc(C(F)(F)F)c4c3C(F)(F)[C@@H]3C[C@H]43)ccc(Cl)c12)S(C)(=O)=O)[C@@H](CC(=O)O)C(=O)O [Compound 71, N-((4-chloro-7-(2-((S)-1-(2-((3bS,4aR)-5,5-difluoro-3-(trifluoromethyl)-3b,4,4a,5-tetrahydro-1H-cyclopropa[3,4]cyclopenta[1,2-c]pyrazol-1-yl)acetamido)-2-(3,5-difluorophenyl)ethyl)-6-(3-methyl-3-(methylsulfonyl)but-1-yn-1-yl)pyridin-3-yl)-1-(2,2,2-trifluoroethyl)-1H-indazol-3-yl)(methylsulfonyl)carbamoyl)-N-methyl-L-aspartic acid]	1 μM	15 μM
CC(C)(C#Cc1ccc(-c2ccc(Cl)c3c(N(C(=O)OCOC(=O)/C=C/C(=O)O)S(C)(=O)=O)nn(CC(F)(F)F)c23)c([C@H](Cc2cc(F)cc(F)c2)NC(=O)Cn2nc(C(F)(F)F)c3c2C(F)(F)[C@@H]2C[C@H]32)n1)S(C)(=O)=O [Compound 93, (E)-4-((((4-chloro-7-(2-((S)-1-(2-((3bS,4aR)-5,5-difluoro-3-(trifluoromethyl)-3b,4,4a,5-tetrahydro-1H-cyclopropa[3,4]cyclopenta[1,2-c]pyrazol-1-yl)acetamido)-2-(3,5-difluorophenyl)ethyl)-6-(3-methyl-3-(methylsulfonyl)but-1-yn-1-yl)pyridin-3-yl)-1-(2,2,2-trifluoroethyl)-1H-indazol-3-yl)(methylsulfonyl)carbamoyl)oxy)methoxy)-4-oxobut-2-enoic acid]	1 μM	22 μM
C[C@@H](OP(=O)(O)O)[C@H](NC(=O)N(c1nn(CC(F)(F)F)c2c(-c3ccc(C#CC(C)(C)S(C)(=O)=O)nc3[C@H](Cc3cc(F)cc(F)c3)NC(=O)Cn3nc(C(F)(F)F)c4c3C(F)(F)[C@@H]3C[C@H]43)ccc(Cl)c12)S(C)(=O)=O)C(=O)O [Compound 62, N-((4-chloro-7-(2-((S)-1-(2-((3bS,4aR)-5,5-difluoro-3-(trifluoromethyl)-3b,4,4a,5-tetrahydro-1H-cyclopropa[3,4]cyclopenta[1,2-c]pyrazol-1-yl)acetamido)-2-(3,5-difluorophenyl)ethyl)-6-(3-methyl-3-(methylsulfonyl)but-1-yn-1-yl)pyridin-3-yl)-1-(2,2,2-trifluoroethyl)-1H-indazol-3-yl)(methylsulfonyl)carbamoyl)-O-phosphono-L-threonine]	4 μM	14 μM
CC(C)(C#Cc1ccc(-c2ccc(Cl)c3c(N(C(=O)O[C@@H](CC(=O)O)C(=O)O)S(C)(=O)=O)nn(CC(F)(F)F)c23)c([C@H](Cc2cc(F)cc(F)c2)NC(=O)Cn2nc(C(F)(F)F)c3c2C(F)(F)[C@@H]2C[C@H]32)n1)S(C)(=O)=O [Compound 119, (S)-2-(((4-chloro-7-(2-((S)-1-(2-((3bS,4aR)-5,5-difluoro-3-(trifluoromethyl)-3b,4,4a,5-tetrahydro-1H-cyclopropa[3,4]cyclopenta[1,2-c]pyrazol-1-yl)acetamido)-2-(3,5-difluorophenyl)ethyl)-6-(3-methyl-3-(methylsulfonyl)but-1-yn-1-yl)pyridin-3-yl)-1-(2,2,2-trifluoroethyl)-1H-indazol-3-yl)(methylsulfonyl)carbamoyl)oxy)succinic acid]	1/1 μM	1/1 μM
CC(C)(C#Cc1ccc(-c2ccc(Cl)c3c(N(C(=O)OCCOCCOCCO)S(C)(=O)=O)nn(CC(F)(F)F)c23)c([C@H](Cc2cc(F)cc(F)c2)NC(=O)Cn2nc(C(F)(F)F)c3c2C(F)(F)[C@@H]2C[C@H]32)n1)S(C)(=O)=O [Compound 107, 2-(2-(2-hydroxyethoxy)ethoxy)ethyl (4-chloro-7-(2-((S)-1-(2-((3bS,4aR)-5,5-difluoro-3-(trifluoromethyl)-3b,4,4a,5-tetrahydro-1H-cyclopropa[3,4]cyclopenta[1,2-c]pyrazol-1-yl)acetamido)-2-(3,5-difluorophenyl)ethyl)-6-(3-methyl-3-(methylsulfonyl)but-1-yn-1-yl)pyridin-3-yl)-1-(2,2,2-trifluoroethyl)-1H-indazol-3-yl)(methylsulfonyl)carbamate]	4 μM	1 μM
CC(C)(C#Cc1ccc(-c2ccc(Cl)c3c(N(C(=O)CN4CCOCC4)S(C)(=O)=O)nn(CC(F)(F)F)c23)c([C@H](Cc2cc(F)cc(F)c2)NC(=O)Cn2nc(C(F)(F)F)c3c2C(F)(F)[C@@H]2C[C@H]32)n1)S(C)(=O)=O [Compound 4, (N-(4-chloro-7-(2-((S)-1-(2-((3bS,4aR)-5,5-difluoro-3-(trifluoromethyl)-3b,4,4a,5-tetrahydro-1H-cyclopropa[3,4]cyclopenta[1,2-c]pyrazol-1-yl)acetamido)-2-(3,5-difluorophenyl)ethyl)-6-(3-methyl-3-(methylsulfonyl)but-1-yn-1-yl)pyridin-3-yl)-1-(2,2,2-trifluoroethyl)-1H-indazol-3-yl)-N-(methylsulfonyl)-2-morpholinoacetamide)]	33 μM	7 μM
CC(C)(C#Cc1ccc(-c2ccc(Cl)c3c(N(COP(=O)(O)O)S(C)(=O)=O)nn(CC(F)(F)F)c23)c([C@H](Cc2cc(F)cc(F)c2)NC(=O)Cn2nc(C(F)(F)F)c3c2C(F)(F)[C@@H]2C[C@H]32)n1)S(C)(=O)=O [Compound 23, (N-(4-chloro-7-(2-((S)-1-(2-((3bS,4aR)-5,5-difluoro-3-(trifluoromethyl)-3b,4,4a,5-tetrahydro-1H-cyclopropa[3,4]cyclopenta[1,2-c]pyrazol-1-yl)acetamido)-2-(3,5-difluorophenyl)ethyl)-6-(3-methyl-3-(methylsulfonyl)but-1-yn-1-yl)pyridin-3-yl)-1-(2,2,2-trifluoroethyl)-1H-indazol-3-yl)methylsulfonamido)methyl dihydrogen phosphate]	6 μM	100 μM
